In patent US20250214993A1, “AROMATIC RING COMPOUND AND USE THEREOF” (SHANGHAI SHIJIANG BIOTECHNOLOGY CO., LTD, priority 2022, published 2025):

test system: mPTP-inactive Daoy cell; experiment: Cell viability (Promega CellTiter-Glo), IC50 on mPTP-inactive Daoy cell (PPIF shRNA); type: cell-based; details: Homo sapiens; Daoy cell transfected with PPIF shRNA vector

SMILES | IC50 [nM]
Cc1ccc(C(=O)C[n+]2ccc3c(c2)CCN3Cc2ccccc2)cc1 [AB24995] | 1980
O=C1c2ccc(OC(F)(F)F)cc2CCC1[n+]1ccc2c(ccn2Cc2ccccc2)c1 (centres unmarked) [AB24997] | 2340
O=C1c2ccc(OC(F)(F)F)cc2CCC1[n+]1ccc2c(c1)CC(c1ccccc1)N2 (centres unmarked) [AB27101] | 1930
O=C(C[n+]1ccc2c(c1)CCC(c1ccccc1)N2)c1ccc(OC(F)(F)F)cc1 (centres unmarked) [AB27103] | 4090
O=C1c2cc(OC(F)(F)F)ccc2CCC1[n+]1ccc2c(c1)CCC(c1ccccc1)N2 (centres unmarked) [AB27132] | 3270
O=C1c2cc(Cl)ccc2CCC1[n+]1ccc(NCc2ccccc2)nc1 (centres unmarked) [AB27138] | 3620
O=C1c2cc(Cl)ccc2CCC1[n+]1cnc2c(ccn2Cc2ccccc2)c1 (centres unmarked) [AB27140] | 1480
CCc1cn(Cc2ccccc2)c2cc[n+](C3CCc4ccc(Cl)cc4C3=O)cc12 (centres unmarked) [AB27171] | 690
O=C1c2cc(Cl)ccc2CCC1[n+]1ccc2c(c1)c(Cl)cn2Cc1ccccc1 (centres unmarked) [AB27172] | 1380
O=C1c2cc(Cl)ccc2CCC1[n+]1ccc2c(c1)c(F)cn2Cc1ccccc1 (centres unmarked) [AB27173] | 1020
Cc1cn(Cc2ccccc2)c2cc[n+](C3CCc4ccc(OC(F)(F)F)cc4C3=O)cc12 (centres unmarked) [AB27175] | 1230
Cc1ccc2c(c1)CCC(n1ccc3c[n+](C(C)c4ccccc4)ccc31)C2 (centres unmarked) [AB27181] | 70
O=C1c2cc(Cl)ccc2CCC1n1ccc2c[n+](Cc3ccccc3)ccc21 (centres unmarked) [AB27187] | 50
Cc1cn(C2CCc3ccc(Cl)cc3C2=O)c2cc[n+](Cc3ccccc3)cc12 (centres unmarked) [AB27188] | 40
O=C1c2cc(C(F)(F)F)ccc2CCC1n1ccc2c[n+](Cc3ccccc3)ccc21 (centres unmarked) [AB27190] | 40
O=C1c2cc(OC(F)(F)F)ccc2CCC1n1ccc2c[n+](Cc3ccccc3)ccc21 (centres unmarked) [AB27191] | 40
Cc1ccc2c(c1)C(=O)C(n1ccc3c[n+](Cc4ccccc4)ccc31)CC2 (centres unmarked) [AB27192] | 30
Cc1ccc2c(c1)CCC(n1ccc3c[n+](Cc4ccccc4)ccc31)C2=O (centres unmarked) [AB27193] | 30
O=C1c2cc(Cl)ccc2CCC1[n+]1ccc2cn(-c3ccccc3)cc2c1 (centres unmarked) [AB27196] | 2080
O=C1c2cc(Cl)ccc2CCC1[n+]1ccc2cn(Cc3ccccc3)cc2c1 (centres unmarked) [AB27197] | 1020

test system: Con-NCI-H82 cell; experiment: Cell viability (Promega CellTiter-Glo, intracellular ATP), IC50 on Con-NCI-H82 cell; type: cell-based; details: Homo sapiens; normal untreated NCI-H82 cell (control)
Text: (§1) The expression of NNMT protein in NCI-H82 cell was overexpressed by inserting the NNMT gene into NCI-H82 cell using a viral vector, and the NNMT protein-overexpressing NCI-H82 cell (ov-NNMT NCI-H82 cell) was obtained. The normal and untreated NCI-H82 cell (Con-NCI-H82 cell) was used as control. The expressing content of NNMT protein in the ov-NNMT NCI-H82 cell and Con-NCI-H82 cell was detected using Western Blot assay (as shown in FIG. 1), it could be seen from FIG. 1 that the NNMT protein was overexpressed in the ov-NNMT NCI-H82 cell compared with the expression level of NNMT protein in the Con-NCI-H82 cell.
(§2) The cell viability was detected using the Promega CellTiter-Glo kit which reflected cell viability by measuring intracellular ATP content. The Con-NCI-H82 cell and ov-NNMT NCI-H82 cell was cultured in 10% fetal bovine serum-containing RPMI1640 medium (+P/S).

SMILES | IC50 [nM]
Cc1ccc(C(=O)C[n+]2ccc3c(c2)CCN3Cc2ccccc2)cc1 [AB24995] | 920
O=C1c2ccc(OC(F)(F)F)cc2CCC1[n+]1ccc2c(ccn2Cc2ccccc2)c1 (centres unmarked) [AB24997] | 498
O=C1c2ccc(OC(F)(F)F)cc2CCC1[n+]1ccc2c(c1)CC(c1ccccc1)N2 (centres unmarked) [AB27101] | 750
O=C(C[n+]1ccc2c(c1)CCC(c1ccccc1)N2)c1ccc(OC(F)(F)F)cc1 (centres unmarked) [AB27103] | 1480
O=C1c2cc(OC(F)(F)F)ccc2CCC1[n+]1ccc2c(c1)CCC(c1ccccc1)N2 (centres unmarked) [AB27132] | 917
O=C1c2cc(Cl)ccc2CCC1[n+]1ccc(NCc2ccccc2)nc1 (centres unmarked) [AB27138] | 1100
O=C1c2cc(Cl)ccc2CCC1[n+]1cnc2c(ccn2Cc2ccccc2)c1 (centres unmarked) [AB27140] | 182
CCc1cn(Cc2ccccc2)c2cc[n+](C3CCc4ccc(Cl)cc4C3=O)cc12 (centres unmarked) [AB27171] | 63
O=C1c2cc(Cl)ccc2CCC1[n+]1ccc2c(c1)c(Cl)cn2Cc1ccccc1 (centres unmarked) [AB27172] | 203
O=C1c2cc(Cl)ccc2CCC1[n+]1ccc2c(c1)c(F)cn2Cc1ccccc1 (centres unmarked) [AB27173] | 135
Cc1cn(Cc2ccccc2)c2cc[n+](C3CCc4ccc(OC(F)(F)F)cc4C3=O)cc12 (centres unmarked) [AB27175] | 226
Cc1ccc2c(c1)CCC(n1ccc3c[n+](C(C)c4ccccc4)ccc31)C2 (centres unmarked) [AB27181] | 17
O=C1c2cc(Cl)ccc2CCC1n1ccc2c[n+](Cc3ccccc3)ccc21 (centres unmarked) [AB27187] | 14
Cc1cn(C2CCc3ccc(Cl)cc3C2=O)c2cc[n+](Cc3ccccc3)cc12 (centres unmarked) [AB27188] | 14
O=C1c2cc(C(F)(F)F)ccc2CCC1n1ccc2c[n+](Cc3ccccc3)ccc21 (centres unmarked) [AB27190] | 13
O=C1c2cc(OC(F)(F)F)ccc2CCC1n1ccc2c[n+](Cc3ccccc3)ccc21 (centres unmarked) [AB27191] | 10
Cc1ccc2c(c1)C(=O)C(n1ccc3c[n+](Cc4ccccc4)ccc31)CC2 (centres unmarked) [AB27192] | 12
Cc1ccc2c(c1)CCC(n1ccc3c[n+](Cc4ccccc4)ccc31)C2=O (centres unmarked) [AB27193] | 9
O=C1c2cc(Cl)ccc2CCC1[n+]1ccc2cn(-c3ccccc3)cc2c1 (centres unmarked) [AB27196] | 577
O=C1c2cc(Cl)ccc2CCC1[n+]1ccc2cn(Cc3ccccc3)cc2c1 (centres unmarked) [AB27197] | 174
O=C1c2ccc(C(F)(F)F)cc2CCC1[n+]1ccc2cn(Cc3ccccc3)cc2c1 (centres unmarked) [AB27294] | 1050
O=C1c2ccc(OC(F)(F)F)cc2CCC1[n+]1ccc2cn(Cc3ccccc3)cc2c1 (centres unmarked) [AB27295] | 717
Cc1ccc(C(=O)C[n+]2ccc3cn(Cc4ccccc4)cc3c2)cc1 [AB27296] | 396
Cc1ccc(C(=O)CN(CC(=O)c2ccc(C)cc2)c2cc[n+](Cc3ccccc3)cc2)cc1 [AB27299] | 674
CC(=O)C[n+]1ccc2c(ccn2C2CCc3ccc(Cl)cc3C2=O)c1 (centres unmarked) [AB27313] | 4370
O=C(C[n+]1ccc2c(ccn2C2CCc3ccc(Cl)cc3C2=O)c1)c1ccccc1 (centres unmarked) [AB27314] | 3040
Cc1ccc(C(=O)C[n+]2ccc(NCc3ccccc3)cc2C)cc1C [AB27327] | 67
Cc1ccc(C(=O)C[n+]2ccc(NCc3cccc(C)n3)cc2C)cc1 [AB27328] | 2800
Cc1ccc(C(=O)C[n+]2ccc(NCc3ccc(C)nc3)cc2C)cc1 [AB27330] | 5110

test system: ov-NNMT NCI-H82 cell; experiment: Cell viability (Promega CellTiter-Glo, intracellular ATP), IC50 on NNMT-overexpressing NCI-H82 cell; type: cell-based; details: Homo sapiens; NCI-H82 cell overexpressing NNMT protein
Text: as §1, §2

SMILES | IC50 [nM]
Cc1ccc(C(=O)C[n+]2ccc3c(c2)CCN3Cc2ccccc2)cc1 [AB24995] | 4150
O=C1c2ccc(OC(F)(F)F)cc2CCC1[n+]1ccc2c(c1)CC(c1ccccc1)N2 (centres unmarked) [AB27101] | 2310
O=C(C[n+]1ccc2c(c1)CCC(c1ccccc1)N2)c1ccc(OC(F)(F)F)cc1 (centres unmarked) [AB27103] | 11000
O=C1c2cc(OC(F)(F)F)ccc2CCC1[n+]1ccc2c(c1)CCC(c1ccccc1)N2 (centres unmarked) [AB27132] | 4870
Cc1ccc2c(c1)CCC(n1ccc3c[n+](C(C)c4ccccc4)ccc31)C2 (centres unmarked) [AB27181] | 245
O=C1c2cc(C(F)(F)F)ccc2CCC1n1ccc2c[n+](Cc3ccccc3)ccc21 (centres unmarked) [AB27190] | 182
O=C1c2cc(OC(F)(F)F)ccc2CCC1n1ccc2c[n+](Cc3ccccc3)ccc21 (centres unmarked) [AB27191] | 184
Cc1ccc2c(c1)CCC(n1ccc3c[n+](Cc4ccccc4)ccc31)C2=O (centres unmarked) [AB27193] | 154
Cc1ccc(C(=O)C[n+]2ccc3cn(Cc4ccccc4)cc3c2)cc1 [AB27296] | 3580
Cc1ccc(C(=O)CN(CC(=O)c2ccc(C)cc2)c2cc[n+](Cc3ccccc3)cc2)cc1 [AB27299] | 1840
CC(=O)C[n+]1ccc2c(ccn2C2CCc3ccc(Cl)cc3C2=O)c1 (centres unmarked) [AB27313] | 7360
Cc1ccc(C(=O)C[n+]2ccc(NCc3ccccc3)cc2C)cc1C [AB27327] | 1040
Cc1ccc(C(=O)C[n+]2ccc(NCc3cccc(C)n3)cc2C)cc1 [AB27328] | 8470
Cc1ccc(C(=O)C[n+]2ccc(NCc3ccc(C)nc3)cc2C)cc1 [AB27330] | 13500

Results, then the compound that gave them:

IC50 [nM] | SMILES
3120 | O=C1c2ccc(OC(F)(F)F)cc2CCC1[n+]1ccc2c(ccn2Cc2ccccc2)c1 (centres unmarked) [AB24997]
9820 | O=C1c2cc(Cl)ccc2CCC1[n+]1ccc(NCc2ccccc2)nc1 (centres unmarked) [AB27138]
1580 | O=C1c2cc(Cl)ccc2CCC1[n+]1cnc2c(ccn2Cc2ccccc2)c1 (centres unmarked) [AB27140]
1050 | CCc1cn(Cc2ccccc2)c2cc[n+](C3CCc4ccc(Cl)cc4C3=O)cc12 (centres unmarked) [AB27171]
2040 | O=C1c2cc(Cl)ccc2CCC1[n+]1ccc2c(c1)c(Cl)cn2Cc1ccccc1 (centres unmarked) [AB27172]
2030 | O=C1c2cc(Cl)ccc2CCC1[n+]1ccc2c(c1)c(F)cn2Cc1ccccc1 (centres unmarked) [AB27173]
2860 | Cc1cn(Cc2ccccc2)c2cc[n+](C3CCc4ccc(OC(F)(F)F)cc4C3=O)cc12 (centres unmarked) [AB27175]
252 | O=C1c2cc(Cl)ccc2CCC1n1ccc2c[n+](Cc3ccccc3)ccc21 (centres unmarked) [AB27187]
214 | Cc1cn(C2CCc3ccc(Cl)cc3C2=O)c2cc[n+](Cc3ccccc3)cc12 (centres unmarked) [AB27188]
214 | Cc1ccc2c(c1)C(=O)C(n1ccc3c[n+](Cc4ccccc4)ccc31)CC2 (centres unmarked) [AB27192]
5510 | O=C1c2cc(Cl)ccc2CCC1[n+]1ccc2cn(-c3ccccc3)cc2c1 (centres unmarked) [AB27196]
1700 | O=C1c2cc(Cl)ccc2CCC1[n+]1ccc2cn(Cc3ccccc3)cc2c1 (centres unmarked) [AB27197]
6530 | O=C1c2ccc(C(F)(F)F)cc2CCC1[n+]1ccc2cn(Cc3ccccc3)cc2c1 (centres unmarked) [AB27294]
8480 | O=C1c2ccc(OC(F)(F)F)cc2CCC1[n+]1ccc2cn(Cc3ccccc3)cc2c1 (centres unmarked) [AB27295]
5580 | O=C(C[n+]1ccc2c(ccn2C2CCc3ccc(Cl)cc3C2=O)c1)c1ccccc1 (centres unmarked) [AB27314]

test system: mPTP-active Daoy cell; experiment: Cell viability (Promega CellTiter-Glo), IC50 on mPTP-active Daoy cell; type: cell-based; details: Homo sapiens; Daoy cell transfected with empty virus vector

SMILES | IC50 [nM]
Cc1ccc(C(=O)C[n+]2ccc3c(c2)CCN3Cc2ccccc2)cc1 [AB24995] | 6320
O=C1c2ccc(OC(F)(F)F)cc2CCC1[n+]1ccc2c(ccn2Cc2ccccc2)c1 (centres unmarked) [AB24997] | 8560
O=C1c2ccc(OC(F)(F)F)cc2CCC1[n+]1ccc2c(c1)CC(c1ccccc1)N2 (centres unmarked) [AB27101] | 5680
O=C(C[n+]1ccc2c(c1)CCC(c1ccccc1)N2)c1ccc(OC(F)(F)F)cc1 (centres unmarked) [AB27103] | 8980
O=C1c2cc(OC(F)(F)F)ccc2CCC1[n+]1ccc2c(c1)CCC(c1ccccc1)N2 (centres unmarked) [AB27132] | 7950
O=C1c2cc(Cl)ccc2CCC1[n+]1ccc(NCc2ccccc2)nc1 (centres unmarked) [AB27138] | 8820
O=C1c2cc(Cl)ccc2CCC1[n+]1cnc2c(ccn2Cc2ccccc2)c1 (centres unmarked) [AB27140] | 3660
CCc1cn(Cc2ccccc2)c2cc[n+](C3CCc4ccc(Cl)cc4C3=O)cc12 (centres unmarked) [AB27171] | 1940
O=C1c2cc(Cl)ccc2CCC1[n+]1ccc2c(c1)c(Cl)cn2Cc1ccccc1 (centres unmarked) [AB27172] | 3940
O=C1c2cc(Cl)ccc2CCC1[n+]1ccc2c(c1)c(F)cn2Cc1ccccc1 (centres unmarked) [AB27173] | 3430
Cc1cn(Cc2ccccc2)c2cc[n+](C3CCc4ccc(OC(F)(F)F)cc4C3=O)cc12 (centres unmarked) [AB27175] | 3860
Cc1ccc2c(c1)CCC(n1ccc3c[n+](C(C)c4ccccc4)ccc31)C2 (centres unmarked) [AB27181] | 190
O=C1c2cc(Cl)ccc2CCC1n1ccc2c[n+](Cc3ccccc3)ccc21 (centres unmarked) [AB27187] | 210
Cc1cn(C2CCc3ccc(Cl)cc3C2=O)c2cc[n+](Cc3ccccc3)cc12 (centres unmarked) [AB27188] | 230
O=C1c2cc(C(F)(F)F)ccc2CCC1n1ccc2c[n+](Cc3ccccc3)ccc21 (centres unmarked) [AB27190] | 130
O=C1c2cc(OC(F)(F)F)ccc2CCC1n1ccc2c[n+](Cc3ccccc3)ccc21 (centres unmarked) [AB27191] | 250
Cc1ccc2c(c1)C(=O)C(n1ccc3c[n+](Cc4ccccc4)ccc31)CC2 (centres unmarked) [AB27192] | 190
Cc1ccc2c(c1)CCC(n1ccc3c[n+](Cc4ccccc4)ccc31)C2=O (centres unmarked) [AB27193] | 170
O=C1c2cc(Cl)ccc2CCC1[n+]1ccc2cn(-c3ccccc3)cc2c1 (centres unmarked) [AB27196] | 6570
O=C1c2cc(Cl)ccc2CCC1[n+]1ccc2cn(Cc3ccccc3)cc2c1 (centres unmarked) [AB27197] | 3570
